Key:
[1] = test system: ERK1/2^T202/Y204 and MEK1/2^S217/S221 phosphorylation; assay: Western blot of MAP kinase pathway phosphorylation in A375 cells; assay type: cell-based
Experimental: (§1) A375 cells seeded in a 6-well plate were starved in DMEM medium containing 0.5% FBS for 2 hr and treated with the indicated concentration of A77 1726 or PLX 4720 (1 μM) for another 2 hr (A) or treated with A77 1726 (100 μM) for the indicated time (B & C). Cells were harvested and analyzed for protein phosphorylation by specific antibodies as indicated. Protein loading was monitored by stripping membrane and re-probing with antibodies against non-phosphorylated proteins. […] A375 cells seeded in a 6-well plate were starved in DMEM medium containing 05% FBS for 2 hr and treated with the indicated concentration of A77 1726 in the absence or presence of uridine (200 μM). Phosphorylated and total proteins were analyzed by Western blot as described above.
(§2) A375 cells seeded in 6-well plates were starved in DMEM medium containing 0.5% FBS for 2 hr and then pre-treated with vehicle (0.1% dimethyl sulfoxide), LY294002 (10 μM) (A), PPP (1 μM) (B), or the inhibitors of the MAP kinase pathway (PLX4720, 1 μM; U0126, 10 μM; PD98059, 10 μM) (C) for 1 hr. Cells were then treated with A77 1726 (100 μM) or rapamycin (20 nM) as indicated for 2 hr. Cells were harvested and analyzed for protein phosphorylation by specific antibodies as indicated. Protein loading was monitored by stripping membrane and re-probing with antibodies against non-phosphorylated proteins.
(§3) Cells grown in 6-well plates were harvested and lysed in NP-40 lysis buffer (50 mM Tris-HCI (pH 8.0), 150 mM NaCl, 1% NP-40, 5 mM EDTA, 10 μg/ml aprotinin, 10 μg/ml leupeptin, and 1 mM phenylmethylsulfonyl fluoride). After incubation on ice for 30 min, the cell lysates were prepared by spinning down at 4° C., 15,000 rpm for 15 min. After electrophoresis and transfer to Immobolin membrane, proteins of interest were probed with their specific antibodies, followed by horseradish peroxidase-conjugated goat anti-rabbit IgG and SuperSignal Western Pico enhanced chemiluminoscence substrate (Pierce Chemical Co., Rockford, Ill.).
(§4) The PI-3 and MAP kinase pathways play an important role in cell proliferation, differentiation, and cell cycle progress. Multiple genes in these two pathways are frequently mutated and have a commanding role in driving tumorigenesis and tumor cell proliferation (2; 3). […] Here we tested whether A77 1726 affected the activation of MAP and PI-3 kinase pathways. A375 cells grown in 6-well plates were starved in the media containing 0.5% FBS for 2 hr and then treated with the indicated concentration of A77 1726. […] We next explored the effect of A77 1726 in phosphorylation of the molecules in the PI-3 kinase pathway.

[2] = target: recombinant p70 S6 kinase (S6K1) (Homo sapiens, UniProt P23443); assay: In vitro p70 S6 kinase assay (ADP-Glo Kinase assay system); assay type: biochemical; settings: 30 min pre-incubation, ATP 10 μM, 1 hr, read-out: IC50, inhibition of recombinant S6K1 activity
Experimental: Leflunomide and A77 1726 diluted at the final concentrations as indicated were pre-mixed with S6K1 for 30 min, followed by the addition of peptide substrate of S6K1 and incubation for 1 hr. S6K1 activity was measured by using a ADP-Glo™ system. The experiment was repeated with similar results. The data represents the mean±standard deviation from one experiment in triplicate.
The ability of lefiunomide and A77 1726 to inhibit p70 S6 kinase assay was conducted by using an ADP-Glo™ Kinase assay system (Promega Corporation, Madison, Wis.). Briefly, A77 1726 or leflunomide diluted in the kinase buffer was mixed with recombinant p70 S6 kinase (100 ng/reaction) and incubated at room temperature for 30 min. Peptide substrate of p70 S6 kinase (5 μg/reaction) and ATP (10 μM, final concentration) was added, with a total final volume of 25 μl. After incubation for 1 hr, ADP-Glo™ reagent (25 μl) was added to each reaction. After incubation for 40 min, kinase detection substrate (luciferin) (50 μl/reaction) was added. After incubation fix 30 min, luciferase activity was measured by reading in a luminescence plate reader. The experiment was conducted in triplicate and repeated once with similar results. The data from one experiment were presented as mean±standard deviation.

Raf-1 phosphorylation = assay: Western blot of Raf-1 phosphorylation in A375 cells; assay type: cell-based
Experimental: A375 cells seeded in a 6-well plate were starved in DMEM medium containing 0.5% FBS for 2 hr and treated with the indicated concentration of A77 1726 or PLX 4720 (1 μM) for another 2 hr (A) or treated with A77 1726 (100 μM) for the indicated time (B & C). Cells were harvested and analyzed for protein phosphorylation by specific antibodies as indicated. Protein loading was monitored by stripping membrane and re-probing with antibodies against non-phosphorylated proteins. (D) Uridine fails to reverse the effect of A77 1726 on the PI-3 and MAP kinase pathways. A375 cells seeded in a 6-well plate were starved in DMEM medium containing 05% FBS for 2 hr and treated with the indicated concentration of A77 1726 in the absence or presence of uridine (200 μM). Phosphorylated and total proteins were analyzed by Western blot as described above.
Cells grown in 6-well plates were harvested and lysed in NP-40 lysis buffer (50 mM Tris-HCI (pH 8.0), 150 mM NaCl, 1% NP-40, 5 mM EDTA, 10 μg/ml aprotinin, 10 μg/ml leupeptin, and 1 mM phenylmethylsulfonyl fluoride). After incubation on ice for 30 min, the cell lysates were prepared by spinning down at 4° C., 15,000 rpm for 15 min. […]

[3] = test system: ribosomal protein S6^S235/S236 phosphorylation; assay: Western blot of S6 phosphorylation in A375 cells; assay type: cell-based; settings: Homo sapiens, A-375; read-out: IC50 to inhibit S6 phosphorylation in cell culture
Experimental: as §1, §2, §3, §4

recombinant p70 S6 kinase (S6K1), sequence (P23443 whole entry): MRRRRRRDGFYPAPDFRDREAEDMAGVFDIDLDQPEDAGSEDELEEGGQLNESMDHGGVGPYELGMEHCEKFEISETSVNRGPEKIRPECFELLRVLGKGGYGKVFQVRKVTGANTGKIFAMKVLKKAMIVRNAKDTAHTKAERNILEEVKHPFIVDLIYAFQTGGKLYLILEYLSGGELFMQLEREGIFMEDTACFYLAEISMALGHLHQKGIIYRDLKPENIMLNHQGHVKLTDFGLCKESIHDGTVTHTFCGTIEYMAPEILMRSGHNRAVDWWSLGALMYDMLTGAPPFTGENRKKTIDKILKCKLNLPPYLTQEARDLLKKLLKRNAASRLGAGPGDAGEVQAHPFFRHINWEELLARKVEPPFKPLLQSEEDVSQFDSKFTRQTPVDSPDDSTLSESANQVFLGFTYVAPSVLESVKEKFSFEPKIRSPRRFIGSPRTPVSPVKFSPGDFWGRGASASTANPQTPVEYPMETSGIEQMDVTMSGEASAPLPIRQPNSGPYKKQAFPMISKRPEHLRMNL

IC50 [2]: ~55 µM
IC50 [3]: 50 to 75 µM
Structure (SMILES): Cc1oncc1C(=O)Nc1ccc(C(F)(F)F)cc1 [leflunomide]
effect on ERK1/2 and MEK phosphorylation ([1]; A375 cells starved in 0.5% FBS, A77 1726 or leflunomide at indicated concentrations, 2 hr): rapidly and potently induced
potency in inducing feedback activation of the MAP kinase pathway ([1]; A375 cells, compared with A77 1726): slightly more potent than A77 1726
effect on Raf-1 phosphorylation (Raf-1 phosphorylation): no increased Raf-1 phosphorylation

— patent US20140121235A1, “Method for Treating S6K-Overexpressing Cancers” (Rush University Medical Center, priority 2012, published 2014)
